Results reported in patent US11986462B2, “Use of tacrolimus in preparation of medicament for initiating tissue regeneration function” (priority 2020, dated 2024).

What was measured:
[1] = system: distal caudal fin tissue of a zebrafish; assay: Tissue regeneration experiment of distal caudal fin of zebrafish (wound model); format: in vivo; conditions: 3 μM tacrolimus in culture solution, adult zebrafish, 1, 3 and 5 days after amputation, vs DMSO control
Protocol: 1. Experimental fish lines and culturing method are as follows: a wild-type (AB) fish was used as an experimental fish, stored in a flowing water tank at 28±0.5° C. with a pH=7±0.5, a conductivity of an aquaculture water was […]; and a photoperiod was 14 h of lighting and 10 h of darkness. Fresh sandworms were fed three times a day. Raising was conducted in accordance with the guidelines of the Ministry of Science and Technology of the People's Republic of China on the cultivation of experimental animals (2006); all fishes were kept under standard laboratory conditions. 2. Wound model construction is as follows: an adult zebrafish was lightly anesthetized in an anesthetic supplemented with tricaine and placed in a 1.5 g/100 mL agarose tank. A tissue with a length of 2-3 joints and a width of two fin rays on caudal fin surface was excavated using a scalpel blade; a hole was exposed on the caudal fin surface to form a damaged tissue containing a proximal wound and a distal wound. Proximal regenerative tissues were daily removed to prevent the hole from being filled. A regeneration status of the caudal fin was imaged and recorded using a Zeiss Discovery […] microscope (Carl Zeiss, Germany). 3. […]

[2] = in the human body; cited from earlier work
[3] = system: calcineurin; assay: Determination of calcineurin activity in caudal fin tissues (malachite green, RII peptide substrate); format: in vivo, zebrafish; conditions: 3 μM tacrolimus in culture solution, vs DMSO control group non-regenerative tissues
Protocol: 4. […] Free phosphate in the sample was removed, the phosphorylated RII peptide was added, and the sample was incubated at 30° C. for 30 min. Malachite green as a phosphate indicator was added, and the amount of free phosphate in the sample was determined using a SpectraMax® iD3 multi-mode microplate reader (Molecular Devices, USA). The calcineurin activity was normalized to a total protein concentration.

[4] = cited from earlier work

C=CC[C@@H]1/C=C(\C)C[C@H](C)C[C@H](OC)[C@H]2O[C@@](O)(C(=O)C(=O)N3CCCC[C@H]3C(=O)O[C@H](/C(C)=C/[C@@H]3CC[C@@H](O)[C@H](OC)C3)[C@H](C)[C@@H](O)CC1=O)[C@H](C)C[C@@H]2OC [tacrolimus, Tacrolimus]
regeneration of non-regenerative distal caudal fin tissue [1]: the distal tissue regeneration was initiated
half-life [2]: 10.7 h
calcineurin activity in tissue, normalized to total protein concentration [3]: lower than that of the non-regenerative tissues
stability in aqueous solution [4]: extremely-unstable in aqueous solution and can be rapidly degraded
